Assay results from patent publication US20150253330A1, “PRE-SELECTION OF SUBJECTS FOR THERAPEUTIC TREATMENT WITH AN HSP90 INHIBITOR BASED ON HYPOXIC STATUS” (Synta Pharmaceuticals Corp., priority 2012, published 2015).
Like-named read-outs stand apart in the source and are kept apart here. Blank lines part the entries; values can stand above or below the compound they belong to.

Legend:
colon cancer first line = settings: cited from earlier work
colon cancer second line = settings: cited from earlier work
RCC = settings: cited from earlier work
A549 NSCLC cells = test: Mouse xenograft tumor model, ganetespib and BEZ235 (Example 9); assay type: in vivo, mice; settings: ganetespib 50 mg/kg weekly i.v.; BEZ235 10 mg/kg 5 times a week p.o.; particularly at later time points; FIG. 8
Source text: Female immunodeficient CD-1 (nude) mice (Charles River Laboratories, Wilmington, Mass.) were maintained in a pathogen-free environment, and all in vivo procedures were approved by the Synta Pharmaceuticals Corp. Institutional Animal Care and Use Committee. A549 NSCLC cells (7.5×10^6) were subcutaneously implanted into the animals. Mice bearing established tumors (100-200 mm^3) were randomized into treatment groups of 8 and i.v. dosed via the tail vein with either vehicle, ganetespib formulated in 10/18 DRD (10% DMSO, 18% Cremophor RH 40, 3.6% dextrose, 68.4% water) or p.o. dosed with BEZ235 formulated in PEG300/NMP (90% PEG300, 10% N-Methylpyrrolidone). Animals were treated with ganetespib at 50 mg/kg weekly or BEZ235 at 10 mg/kg 5 times a week, either alone or in combination. Tumor growth inhibition was determined as described previously. See Proia et al, PLoS One. 2011; 6(4):e18552.

[1] = system: AGS (wt-p53 and mut-KRAS); test: 72 hr viability by CTG, gastric cancer cells; assay type: cell-based; settings: viability by CTG (upper)
Description: (§1) Many of the oncoproteins associated with gastric cancer and Hsp90 client proteins including HER2, MET, RAS and the FGFR family. Ganetespib was evaluated for its effect on the growth of AGS (wt-p53 and mut-KRAS) and MKN45 (wt-p53, wt-KRAS, MET amplified) gastric cancer cells.

[2] = system: MKN45 (wt-p53, wt-KRAS, MET amplified); test: 72 hr viability by CTG, gastric cancer cells; assay type: cell-based; settings: Homo sapiens, MKN-45, viability by CTG (upper)
Description: as §1

HIF-1α and VEGF = test: Western blot of HIF-1α and VEGF in pancreatic cancer cell lines; assay type: cell-based; settings: 50 nM, 24 h
Description: It's postulated that functional inhibition of Hsp90 by ganetespib can inhibit angiogenesis and growth in vitro and in vivo models of pancreatic cancer. PANC-1 and HPAC cell lines were treated with vehicle or G (50 nM) for 24 h and lysates were analyzed by Western blot. Egg CAM and matrigel plug assays were performed to quantify the effects of ganetespib on angiogenesis. Efficacy of ganetespib (100 mg/kg) was assessed in mice bearing HPAC and ASPC-1 xenograft.
Primary antibodies specific to Hsp90, HIF-1α, VEGF, Actin and HRP conjugated secondary antibodies (Santa Cruz Biotechnology, California and Cell Signaling Technology, USA) were used for Western blot. Ganetespib was provided by Synta Pharmaceuticals, Lexington, Mass. and Matrigel was purchased from BD Biosciences.
Cells were harvested at the end of treatment and lysed in the RIPA protein extraction buffer (Sigma-Aldrich, Saint Louis, Mo., USA) containing the protease inhibitor cocktail. Equal amounts of protein fractions of lysates were resolved over SDS-PAGE and transferred on to PVDF membrane. Membranes were incubated with primary antibodies followed by HRP-conjugated secondary antibodies. Bound antibodies were visualized using enhanced chemiluminescence. To confirm equal loading, membranes were verified and re-probed with an antibody specific for the housekeeping gene, anti-β-actin.

[3] = system: Chk1 and Chk2 phosphorylation; test: Western blot of Chk1 and Chk2 phosphorylation after bleomycin in Detroit 562 cells; assay type: cell-based; settings: Detroit 562, bleomycin (5 μM)
Description: Protein expression was measured at the indicated time points after bleomycin treatment.
Cell extracts from Detroit 562 head and neck cancer cells were treated with 100 nM of ganetespib 24 hours prior to receiving the DNA damaging agent bleomycin (5 μM). Protein expression was measured at the indicated time points after bleomycin treatment.

pancreatic cancer = settings: cited from earlier work
prostate cancer = settings: cited from earlier work
melanoma = settings: cited from earlier work

Compound: Clc1ccc(Nc2nnc(Cc3ccncc3)c3ccccc23)cc1 [vatalanib]
PFS HR (colon cancer first line; LDH group not given, P=0.188): 0.88
PFS HR (colon cancer first line; high LDH, P=0.009): 0.67
PFS HR (colon cancer second line; LDH group not given, P=0.01): 0.83
PFS HR (colon cancer second line; high LDH, P<0.001): 0.63

Compound: CO[C@H]1C[C@@H]2CC[C@@H](C)[C@@](O)(O2)C(=O)C(=O)N2CCCC[C@H]2C(=O)O[C@H]([C@H](C)C[C@@H]2CC[C@@H](OC(=O)C(C)(CO)CO)[C@H](OC)C2)CC(=O)[C@H](C)/C=C(\C)[C@@H](O)[C@@H](OC)C(=O)[C@H](C)C[C@H](C)/C=C/C=C/C=C/1C [temsirolimus]
OS HR (RCC; high LDH, P=0.002): 0.56
OS HR (RCC; normal LDH, P=0.51): 0.90

Compound: Cn1c(=O)n(-c2ccc(C(C)(C)C#N)cc2)c2c3cc(-c4cnc5ccccc5c4)ccc3ncc21 [BEZ235, reference compound]
Average tumor volume as compared to vehicle (A549 NSCLC cells): significantly reduced

IC50 [1]: 50 nM
IC50 [2]: 1 nM
Compound: C=CCNC1=C2C[C@@H](C)C[C@H](OC)[C@H](O)[C@@H](C)/C=C(\C)[C@H](OC(N)=O)[C@@H](OC)/C=C\C=C(/C)C(=O)NC(=CC1=O)C2=O [17-AAG, 17-allyamino-geldanamycin]

IC50 [1]: 0.3 nM
IC50 [2]: 0.1 nM
Compound: CC(=O)O[C@@]12CO[C@@H]1C[C@H](O)[C@@]1(C)C(=O)[C@H](O)C3=C(C)[C@@H](OC(=O)[C@H](O)[C@@H](NC(=O)OC(C)(C)C)c4ccccc4)C[C@@](O)([C@@H](OC(=O)c4ccccc4)[C@H]21)C3(C)C [Docetaxel]

Compound: 3-2,4-dihydroxy-5-isopropyl-phenyl)-4-(1-methyl-indol-5-yl)-5-hydroxy-[1,2,4]triazole [ganetespib]
HIF-1α and VEGF protein levels (HIF-1α and VEGF): significant reduction

Compound: Bleomycin [reference compound]
Chk1 and Chk2 phosphorylation [3]: increased both Chk1 and Chk2 phosphorylation

Compound: bevacizumab: anti-cancer agent cited from large randomized phase 2 and phase 3 studies
OS HR (pancreatic cancer; high LDH, 95% CI 0.43-0.82): 0.59
HR (pancreatic cancer; normal LDH, 95% CI 0.78-1.24): 0.98
OS HR (prostate cancer; high LDH, P=0.029): 0.80
OS HR (prostate cancer; normal LDH, P=0.87): 1.02
OS HR (melanoma; high LDH, 95% CI 0.32-0.88): 0.53
OS HR (melanoma; normal LDH, 95% CI 0.73-1.25): 1.25
